Structures are written as SMILES. Several values for one entry are separate records, joined by “and”; a condition that tells them apart may be missing. Equal entries are not always repeated.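 Step 1: Grow cells in 96-well plates. Step 2: Expose to compound for 48 hours at 5 concentrations. Step 3: Interpolate endpoints linearly; if unreached, use highest concentration. GI50 = concentration required for 50% inhibition of growth. TGI denotes the concentration required for complete inhibition of growth.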 Activity calls are given as the source filed them. Cut-off read from the data, not from the text of the source: active = GI50 below about 0.43 µM; inactive = the rest.

Test systems include NCI-H226 lung; NCI-H23 lung; OVCAR-8 ovarian; SNB-19 CNS; SW-620 colon; UACC-62 melanoma; SNB-75 CNS.
What all share (assay): NCI-60 cell line screen, 48 h

For the compound `CC(=O)c1ccc2c3c1O[C@H]1c4[nH]c5ccccc5c4C[C@@]4(O)[C@@H](C2)N(CC2CC2)CC[C@]314`, the TGI stood at 42.5 µM in the assay with NCI-H226 lung; 48.1 µM in the assay on NCI-H23 lung; 27.8 µM in the assay with OVCAR-8 ovarian; 20.8 µM in the assay with SNB-19 CNS; 20.6 µM in the assay with SW-620 colon; 30.7 µM in the assay with UACC-62 melanoma.

Turning to `CC1(C)CN=CC(C)(OCc2ccccc2)C(=O)NC(C)(C)CN=CC(C)(OCc2ccccc2)C(=O)N1` (stereo unspecified), the TGI in the assay with NCI-H226 lung, with NCI-H23 lung, with OVCAR-8 ovarian, with SNB-19 CNS, in the assay with SNB-75 CNS and in the assay on SW-620 colon was greater than 10 µM in each case. In the assay on UACC-62 melanoma, this compound had a TGI greater than 10 µM.

Take `COc1ccc(C2=NNC(c3cc4cc(Br)ccc4nc3Cl)C2)cc1` (stereo unspecified): the TGI is 11.8 µM with NCI-H226 lung; greater than 25 µM in the assay on NCI-H23 lung; greater than 25 µM in the assay with SNB-75 CNS; greater than 25 µM with SW-620 colon; greater than 25 µM with UACC-62 melanoma.

On to `O=c1c2cc(I)ccc2nc(SCc2nnco2)n1Cc1ccccc1`, for which the TGI in the assay on NCI-H226 lung, with NCI-H23 lung, in the assay on OVCAR-8 ovarian, with SNB-19 CNS, in the assay with SNB-75 CNS and in the assay with SW-620 colon was greater than 100 µM in each case. Further, the TGI in the assay on UACC-62 melanoma is greater than 100 µM.

Turning to `CC1=NN(C(=O)Cc2ccccc2)C(=O)/C1=C\c1ccccc1O`, the TGI in the assay with NCI-H226 lung, in the assay with NCI-H23 lung, in the assay on OVCAR-8 ovarian, with SNB-19 CNS, in the assay on SW-620 colon and with UACC-62 melanoma was greater than 100 µM each time.

Turning to `OC1(c2ccc(Cl)cc2)c2c(c3ccccc3c3ccccc23)C2=NCCN21` (stereo unspecified), the TGI in the assay with NCI-H23 lung stood at 24.5 µM; in the assay on OVCAR-8 ovarian, 28.5 µM; with SNB-19 CNS it was 27.8 µM; in the assay on SNB-75 CNS, 7.52 µM; in the assay on SW-620 colon it was 32.8 µM; in the assay with UACC-62 melanoma, 32 µM.

Take `NC1=Nc2ccccc2Sc2nc3ccccc3n21`: the TGI with NCI-H226 lung, in the assay with NCI-H23 lung, in the assay with SNB-19 CNS, with SNB-75 CNS, in the assay with SW-620 colon and in the assay with UACC-62 melanoma was greater than 100 µM in each case.

With `CO[C@]12CC(=O)C3(C(C[C@H]4CC5CC[C@H]6C[C@@H](OC(C)=O)CC[C@]6(OC(C)=O)C5C[C@@]43C)C1)C1C[C@H]3[C@@H]4CC[C@H]5C[C@@H](OC(C)=O)CC[C@]5(OC(C)=O)[C@H]4CC[C@]3(C)C12` (stereo partly specified), the TGI with NCI-H23 lung, in the assay with OVCAR-8 ovarian, in the assay on SNB-19 CNS, with SNB-75 CNS, with SW-620 colon and with UACC-62 melanoma was greater than 100 µM in each case.

Take `COc1cc(C2c3cc(OC)c(OC)c(O)c3C(=O)C3CCC(=O)N32)cc(OC)c1OC` (stereo unspecified): the TGI in the assay with NCI-H226 lung is greater than 100 µM; in the assay with OVCAR-8 ovarian, 71.4 µM; with SNB-19 CNS it was greater than 100 µM; in the assay on SNB-75 CNS, greater than 100 µM; in the assay on SW-620 colon, greater than 100 µM; in the assay with UACC-62 melanoma, greater than 100 µM.

For `O=Cc1c(Br)[nH]c2ccccc12`, the TGI in the assay with NCI-H226 lung, in the assay with NCI-H23 lung, in the assay with OVCAR-8 ovarian, with SNB-75 CNS, with SW-620 colon and in the assay on UACC-62 melanoma was greater than 100 µM in each case.

For `CN(C)C=NCC(O)c1ccccc1` (stereo unspecified), the TGI with NCI-H226 lung, in the assay on NCI-H23 lung, in the assay on SNB-19 CNS, with SNB-75 CNS, in the assay on SW-620 colon and with UACC-62 melanoma was greater than 100 µM throughout.

As to `O=C(N[C@H]1CCC[C@H]1C(=O)Nc1ccc(C(F)(F)F)cc1)OCc1ccccc1`, the TGI with NCI-H226 lung, in the assay on NCI-H23 lung, in the assay on OVCAR-8 ovarian, with SNB-19 CNS, in the assay with SW-620 colon and with UACC-62 melanoma was greater than 100 µM throughout.

Regarding `COc1cc2c(c(OC)c1OC)-c1ccc(SC)c(=O)cc1[C@@H](NC(=O)c1ccc([N+](=O)[O-])cc1)CC2`, the TGI with SNB-19 CNS was 23.2 µM; with SW-620 colon, 25 µM and > 100 µM; in the assay with UACC-62 melanoma, 25 µM and > 100 µM. In the assay with SNB-75 CNS, the GI50 is less than 0.0025 µM.

For the compound `COc1ccc(-c2nc(-c3cnccn3)n(Cc3ccccc3)n2)cc1`, the TGI in the assay on NCI-H23 lung, in the assay with OVCAR-8 ovarian, with SNB-19 CNS, in the assay on SNB-75 CNS, with SW-620 colon and in the assay on UACC-62 melanoma was greater than 100 µM in each case.

As to `COc1cc(O)cc(O)c1C(=O)CC(Cl)(Cl)Cl`, the TGI with NCI-H226 lung, in the assay on NCI-H23 lung, in the assay with OVCAR-8 ovarian, in the assay on SNB-19 CNS, in the assay with SW-620 colon and in the assay on UACC-62 melanoma was greater than 100 µM throughout.

As to `C[N+](C)(C)CC(=O)N/N=C(/Cc1nc2ccc([N+](=O)[O-])cc2[nH]c1=O)C(=O)Nc1cc(C(F)(F)F)ccc1Cl`, the TGI in the assay with NCI-H23 lung, with OVCAR-8 ovarian, with SNB-19 CNS, in the assay with SW-620 colon and in the assay with UACC-62 melanoma was greater than 100 µM each time.

For the compound `O=C1CC(C(COCc2ccccc2)OCc2ccccc2)CC(=O)N1` (stereo unspecified), the TGI with NCI-H226 lung, with NCI-H23 lung, with OVCAR-8 ovarian, with SNB-19 CNS and in the assay on SW-620 colon was greater than 100 µM throughout.

On to `O=c1[nH]c(=O)n(COCc2ccccc2)c2ccccc12`, for which the TGI with NCI-H226 lung was greater than 100 µM; in the assay with OVCAR-8 ovarian it was greater than 100 µM; in the assay on SNB-19 CNS it was greater than 100 µM; in the assay on SNB-75 CNS it was 54.9 µM; in the assay on SW-620 colon, greater than 100 µM; in the assay on UACC-62 melanoma, greater than 100 µM.

In the case of `CCOC1NC(/N=C/c2ccc(OC)cc2)=C(C#N)C1C#N` (stereo unspecified), the TGI in the assay with NCI-H226 lung, in the assay with NCI-H23 lung, with OVCAR-8 ovarian, with SNB-19 CNS, in the assay on SW-620 colon and in the assay with UACC-62 melanoma was greater than 100 µM each time.

As to `N#CCc1nc2cc(C(F)(F)F)ccc2s1`, the TGI with NCI-H226 lung was greater than 100 µM; with NCI-H23 lung, 94.8 µM; with OVCAR-8 ovarian, 87.4 µM; in the assay on SNB-75 CNS, greater than 100 µM; in the assay with SW-620 colon it was greater than 100 µM.

Consider `O=C(NNS(=O)(=O)c1ccccc1)c1csc(NC(=S)NC2CCCCC2)n1`, for which the TGI was greater than 100 µM in the assay on NCI-H226 lung; greater than 100 µM in the assay on NCI-H23 lung; greater than 100 µM in the assay with OVCAR-8 ovarian; greater than 100 µM with SNB-75 CNS; 72.9 µM in the assay on SW-620 colon; 61.3 µM in the assay on UACC-62 melanoma.

`NCCS(=O)(=O)O`: the TGI with NCI-H226 lung, in the assay with NCI-H23 lung, in the assay with OVCAR-8 ovarian, with SNB-19 CNS, with SNB-75 CNS and in the assay with SW-620 colon was greater than 100 µM throughout.

Turning to `COc1cc([C@@H]2c3cc4c(cc3[C@@H](c3c(O)cc(O)c5c3O[C@H](c3ccc(O)c(O)c3)[C@H](OC(=O)c3cc(O)c(O)c(O)c3)C5)[C@H]3COC(=O)[C@H]23)OCO4)cc(OC)c1O`, the TGI with NCI-H23 lung, in the assay on OVCAR-8 ovarian, with SNB-19 CNS, in the assay on SW-620 colon and in the assay with UACC-62 melanoma was greater than 100 µM in each case.

Consider `CC1CCOc2ccc(cc2)C=Nc2ccc(cc2)-c2ccc(cc2)N=Cc2ccc(cc2)OCC1` (stereo unspecified), for which the TGI in the assay with NCI-H226 lung, in the assay on NCI-H23 lung, in the assay on OVCAR-8 ovarian and with SW-620 colon was greater than 100 µM throughout.

Regarding `N#Cc1c(N2CCCC2)nsc1Nc1ccc(F)cc1`, the TGI in the assay with NCI-H226 lung, with NCI-H23 lung, in the assay on OVCAR-8 ovarian, with SNB-19 CNS, in the assay with SW-620 colon and with UACC-62 melanoma was greater than 100 µM in each case.

Take `O=P(O)(O)CN1CCNCCN(CP(=O)(O)O)CCN(CP(=O)(O)O)CCNCC1`: the outcome with NCI-H226 lung, in the assay with NCI-H23 lung, in the assay with SNB-19 CNS, with SNB-75 CNS, with SW-620 colon and in the assay with UACC-62 melanoma was inactive.

As for `CC(=O)OCC1OC(n2c(N)c(C#N)c(-c3cccc(Cl)c3)c(C#N)c2=S)C(OC(C)=O)C(OC(C)=O)C1OC(C)=O` (stereo unspecified), the TGI is 92.7 µM in the assay with NCI-H23 lung; 39.9 µM in the assay on OVCAR-8 ovarian; greater than 100 µM with SNB-19 CNS; 56.2 µM with SNB-75 CNS; greater than 100 µM in the assay on SW-620 colon; greater than 100 µM in the assay with UACC-62 melanoma.

For `CC(=O)N1C(Nc2cccc3nc(C)ccc23)CCN1c1ccccc1` (stereo unspecified), the TGI with NCI-H226 lung, in the assay on NCI-H23 lung, in the assay with OVCAR-8 ovarian, in the assay on SNB-19 CNS, in the assay with SNB-75 CNS and in the assay on SW-620 colon was greater than 10 µM each time.

In the case of `C1=CN2C[n+]3ccc4ccccc4c3N=C2c2ccccc21`, the TGI with NCI-H23 lung amounted to 21.4 µM; with OVCAR-8 ovarian it was 24.9 µM; in the assay with SNB-19 CNS it was 33.3 µM; with SW-620 colon, 34.2 µM; in the assay on UACC-62 melanoma it was 4.32 µM.

The values above are taken from PubChem BioAssay (NCI).
